Results on 25 molecules are retold here after patent EP4763838A1, “COMPOUND AND USE THEREOF” (Ocean University of China, priority 2023, dated 2025).

Experiment [1] addresses T1, E3 ubiquitin ligase CRBN (Homo sapiens, UniProt Q96SW2).
T1 construct: purchased PE (PerkinElmer) 64BDCRBNPEG
The experiment is described as follows: Binding activity to E3 ubiquitin ligase CRBN (HTRF competitive binding with XL665-labeled thalidomide, Cereblon binding kit). The settings on record: competition with XL665-labeled thalidomide for GST-labelled CRBN protein, 3 h at room temperature. The method, then: The binding activity of the compound disclosed in the present patent to the E3 ubiquitin ligase CRBN was determined by competitive binding of the disclosed compound with XL665-labeled thalidomide to the CRBN protein, thereby preventing the occurrence of fluorescence resonance energy transfer (FRET). Accordingly, the binding affinity of the compound to the CRBN protein was determined.
CRBN binding activity test kit (CEREBLON BINDING KITS (PE, 64BDCRBNPEG)).
The assay was based on a homogeneous time-resolved fluorescence (HTRF) technology. When a donor and an acceptor were in close proximity, the donor transferred energy to the acceptor so that the acceptor was excited to emit an emission light 665 nm.
The donor used in the kit of the present disclosure was a europium-labeled GST antibody (GST Eu Cryptate Antibody), and the acceptor was thalidomide labeled with XL665 (Thalidomide-Red reagent). The donor bound to the CRBN protein comprising a GST label. The compound disclosed in the present patent competitively bound to the CRBN protein with thalidomide. The binding activity of the compound was determined according to the fluorescence value emitted by the acceptor at 665 nm. The stronger binding force of the compound indicated the weaker signal.
The donor and the acceptor were diluted 50-fold respectively by using a kit buffer (PROTAC binding buffer 1). The CRBN protein was diluted 45-fold. The 8 mM solution of the compound disclosed in the present patent was diluted 10-fold with 1X diluent from the kit, followed by 5-fold serial dilutions for a total of 7 consecutive dilutions.
5 µl of compound, 5 µl of diluted CRBN protein and 10 µl of donor-acceptor isovolumetric mixture were sequentially added to each well of a white 384-well plate (PE, Part number:6008280). The above system was incubated for 3 h at room temperature.
A ratio of acceptor to donor emission signals for each individual well was calculated. Ratio = signal value at 665 nm/signal value at 620 nm * 10^4 Coefficient of variation (CV) = standard deviation (SD)/average Ratio × 100 [formula]
The IC50 value was calculated based on the compound concentration, Ratio and the coefficient of variation by using GraphPad Prism. Table 10 Binding activity of compounds 1-18 to E3 ubiquitin ligase CRBN
For orientation: TR-FRET usually uses a lanthanide donor and a delayed reading to cut background.

Experiment [2] deals with T2, androgen receptor (AR) (Homo sapiens, UniProt P10275, T878A).
T2 construct: endogenous in cells; host or cells: LNCaP
The experiment is described as follows: Reduction of androgen receptor (AR) expression levels in LNCaP cells (Western blot, DC50 and Dmax). To be noted: 24 h of treatment, 0.01, 0.1, 1 and 10 µM, α-tubulin internal reference. The format is cell-based. As for the experimental part: The human prostate cancer cell line LNCaP cells selected in this experiment were cultured in an RPMI-1640 culture medium containing 10% fetal bovine serum (Gibco, USA) in an incubator under the conditions of 37°C, 5% CO2 and 95% humidity. When the growth density reached 80%, the cells were inoculated into a 6-well plate with 5×10^5 cells per well. After culturing for 24 h, the culture medium was replaced with a culture medium containing the compounds so that the final concentrations of the compounds were 0.01, 0.1, 1 and 10 µM. After 24 h of treatment, the supernatant was removed, the cells were washed twice with PBS, and a RIPA lysis buffer containing a protease inhibitor and a phosphatase inhibitor was added to the cells. After lysis and centrifugation, the total protein extract was obtained. The concentration of the protein in the extract was determined by using the BCA method.
Protein electrophoresis was performed by using SDS-PAGE, followed by electrotransfer at a constant current of 200 mA for 90 min to transfer proteins onto the PVDF membrane. The PVDF membrane was placed in 5% skim milk and blocked for 1 h at room temperature. An anti-Androgen Receptor antibody [EPR1535(2)] (ab133273)(1:10000) was added for incubation overnight at 4°C. The membrane was washed with TBST for 3 times, with 10 min each time. The mixture of the membrane and a secondary antibody were incubated for 60 min at room temperature. The membrane was washed with TBST for 3 times, with 10 min each time. The ECL light-emitting liquid was dropwise added for exposure. Each sample was simultaneously detected using α-tubulin protein as an internal reference. The protein profile was analyzed for grayscale values using analysis software ImageJ. The gray scale correction value of each sample was calculated by using the formula: gray scale correction value = (gray scale value of the target protein/gray scale value of the corresponding internal reference) […] 10^3. Then, the calculated gray scale correction value was compared with a control gray scale correction value to calculate a degradation rate. Then, nonlinear curve fitting was performed on a logarithmic concentration-inhibition rate using Prism to obtain the DC50 and Dmax values of the compound.
Table 14 summarizes the evaluation of protein degraders PRTA-01 to 06 in reducing AR protein expression levels. DC50 represents the concentration of the protein degrader when it induces AR protein degradation to 50% of the initial level, and the level is classified as A (DC50<1 µM), B (DC50 1~10 µM), or C (DC50>10 µM). Dmax represents the proportion of the maximum degree of […] protein degradation induced by the protein degrader to the total AR protein amount, with the level graded as A (Dmax>85%), B (Dmax85-50%), or C (Dmax<50%). Table 14 Evaluation of protein degraders PRTA-01 to 06 in reducing AR protein expression levels

The IC50 is the concentration that gives 50% inhibition.

Several values for one entry are separate records, joined by “and”; a condition that tells them apart may be missing. Equal entries are not always repeated. Structures can show the parent of a compound that is named as a salt. Where two headings read alike, the source gives them in different places.

Consider `O=C1CCC(c2nnc(N3CCNCC3)cc2-c2ccccc2)C(=O)N1` (stereo not shown) [Compound 19, 3-(4-phenyl-6-(piperazin-1-yl)pyridazin-3-yl)piperidine-2,6-dione hydrochloride salt], for which the 50% inhibitory concentration (IC50) in experiment [1] was > 100 µM. Take `O=C1CCC(c2nnc(N3CCNCC3)cc2-c2ccncc2)C(=O)N1` (stereo not shown) [Compound 20, 3-(6-(piperazin-1-yl)-4-(pyridin-4-yl)pyridazin-3-yl)pi peridine-2,6-dione hydrochloride salt]: the half-maximal inhibitory concentration (IC50) in experiment [1] is > 100 µM.

In turn, `Cc1cc(C2CCC(=O)NC2=O)nnc1N1CCNCC1` (stereo not shown) [Compound 21, 3-(5-methyl-6-(piperazin-1-yl)pyridazin-3-yl)piperidine-2,6-dione hydrochloride salt] had a concentration for half-maximal inhibition (IC50) in experiment [1] of 50 µM. Still for that read-out and setting: the same measure for `CCc1cc(C2CCC(=O)NC2=O)nnc1N1CCNCC1` (stereo not shown) [Compound 22, 3-(5-ethyl-6-(piperazin-1-yl)pyridazin-3-yl)piperidine-2,6-dione hydrochloride salt]: > 50 µM; for `CC(C)c1cc(C2CCC(=O)NC2=O)nnc1N1CCNCC1` (stereo not shown) [Compound 23, 3-(5-isopropyl-6-(piperazin-1-yl)pyridazin-3-yl)piper idine-2,6-dione hydrochloride salt]: 100 µM; for `O=C1CCC(c2cc(C3CC3)c(N3CCNCC3)nn2)C(=O)N1` (stereo not shown) [Compound 24, 3-(5-cyclopropyl-6-(piperazin-1-yl)pyridazin-3-yl)pip eridine-2,6-dione hydrochloride salt]: > 50 µM. On the same count and under the same terms, in the case of `O=C1CCC(c2cc(F)c(N3CCNCC3)nn2)C(=O)N1` (stereo not shown) [Compound 25, 3-(5-fluoro-6-(piperazin-1-yl)pyridazin-3-yl)piperidine-2,6-dione hydrochloride salt] it was 50 µM; in that of `N#Cc1cc(C2CCC(=O)NC2=O)nnc1N1CCNCC1` (stereo not shown) [Compound 26, 6-(2,6-dioxopiperidin-3-yl) -3-(piperazin-1-yl)pyridazine-4-carbonitrile hydrochloride salt], 50 µM; in that of `O=C1CCC(c2cc(C(F)(F)F)c(N3CCNCC3)nn2)C(=O)N1` (stereo not shown) [Compound 27, 3-(6-(piperazin-1-yl)-5-(trifluoromethyl)pyridazin-3-yl)piperidine-2,6-dione hydrochloride salt], 50 µM. `COc1cc(C2CCC(=O)NC2=O)nnc1N1CCNCC1` (stereo not shown) [Compound 28, 3-(5-methoxy-6-(piperazin-1-yl)pyridazin-3-yl)piper idine-2,6-dione hydrochloride salt] showed an IC50 in experiment [1] of 50 µM. The molecule `Nc1cc(C2CCC(=O)NC2=O)nnc1N1CCNCC1` (stereo not shown) [Compound 29, 3-(5-amino-6-(piperazin-1-yl)pyridazin-3-yl)piperidine-2,6-dione hydrochloride salt] came in with an IC50 in experiment [1] of 50 µM.

On to `CN(C)Cc1cc(C2CCC(=O)NC2=O)nnc1N1CCNCC1` (stereo not shown) [Compound 30, 3-(5-((dimethylamino)methyl)-6-(piperazin-1-yl)pyridazin-3-yl)piperidine-2,6-dione bis-hydrochloride salt], for which the half-maximal inhibitory concentration (IC50) in experiment [1] (read-out: IC50) was > 50 µM and 100 µM. In experiment [1], `Cc1c(C2CCC(=O)NC2=O)nnc(N2CCNCC2)c1C` (stereo not shown) [Compound 33, 3-(4,5-dimethyl-6-(piperazin-1-yl)pyridazin-3-yl)pip eridine-2,6-dione hydrochloride salt] came in with an IC50 of 50 µM. Still for that read-out and setting: in the case of `O=C1CCC(F)(c2ccc(N3CCNCC3)nn2)C(=O)N1` (stereo not shown) [Compound 38, 3-fluoro-3-(6-(piperazin-1-yl)pyridazin-3-yl)piperidine-2,6-dione hydrochloride salt] it was 50 µM; in that of `[2H]C1(c2ccc(N3CCNCC3)nn2)CCC(=O)NC1=O` (stereo not shown) [Compound 39, 3-(6-(piperazin-1-yl)pyridazin-3-yl)piperidine-2,6-dione-3-dhydrochloride salt], 50 µM. On the same count and under the same terms, in the case of `O=C1CCN(c2ccc(N3CCNCC3)nn2)C(=O)N1` [Compound 40, 1-(6-(piperazin-1-yl)pyridazin-3-yl)dihydropyrimidine-2,4(1H,3H)-dione hydrochloride salt] it was 50 µM. On the same count and under the same terms, the same measure for `COc1nnc(C2CCC(=O)NC2=O)cc1N1CCNCC1` (stereo not shown) [Compound 41, 3-(6-methoxy-5-(piperazin-1-yl)pyridazin-3-yl)piper idine-2,6-dione hydrochloride salt]: 50 µM; for `CN(C)c1nnc(C2CCC(=O)NC2=O)cc1N1CCNCC1` (stereo not shown) [Compound 42, 3-(6-(dimethylamino)-5-(piperazin-1-yl)pyridazin-3-yl)piperidine-2,6-dione hydrochloride salt]: 50 µM. Regarding `CN1C(=O)CCC(c2ccc(N3CCNCC3)nn2)C1=O` (stereo not shown) [Compound 43, 1-methyl-3-(6-(piperazin-1-yl)pyridazin-3-yl)piperidine-2,6-dione hydrochloride salt], in experiment [1], the IC50 was > 100 µM. For `N#Cc1ccc(O[C@H]2CC[C@H](NC(=O)c3ccc(N4CCN(CC5CCN(c6ccc(C7CCC(=O)NC7=O)nn6)CC5)CC4)cc3)CC2)cc1Cl` (stereo partly shown) [PRTA-01], in experiment [2], the DC50 was < 1 µM and the Dmax lay within 50 to 85%.

`N#Cc1ccc(OC2CCC(NC(=O)c3ccc(N4CCC(CN5CCN(c6ccc(C7CCC(=O)NC7=O)nn6)CC5)CC4)nn3)CC2)cc1Cl` (stereo not shown) [PRTA-02]: in experiment [2], the DC50 was < 1 µM and the Dmax is > 85%. Regarding `N#Cc1ccc(O[C@H]2CC[C@H](NC(=O)c3ccc(N4CCC(CN5CCN(c6ccc(N7CCC(=O)NC7=O)nn6)CC5)CC4)nn3)CC2)cc1Cl` [PRTA-03], in experiment [2], the DC50 is < 1 µM and the Dmax is > 85%. In experiment [2], `Cc1cc(N2CCN(CC3CCN(c4ccc(C(=O)N[C@H]5CC[C@H](Oc6ccc(C#N)c(Cl)c6)CC5)nn4)CC3)CC2)nnc1C1CCC(=O)NC1=O` (stereo partly shown) [PRTA-04] displayed a DC50 of 1 to 10 µM and a Dmax of 50 to 85%. Consider `N#Cc1ccc(O[C@H]2CC[C@H](NC(=O)c3ccc(N4CCC(CN5CC6(C5)CN(c5ccc(C7CCC(=O)NC7=O)nn5)C6)CC4)cc3)CC2)cc1Cl` (stereo partly shown) [PRTA-05], for which, in experiment [2], the DC50 was < 1 µM and the Dmax was 50 to 85%. With `N#Cc1ccc(O[C@H]2CC[C@H](NC(=O)c3ccc(N4CCC(n5cc(C#Cc6ccc(C7CCC(=O)NC7=O)nn6)cn5)CC4)cc3)CC2)cc1Cl` (stereo partly shown) [PRTA-06], in experiment [2], the DC50 is < 1 µM and the Dmax was > 85%.
